Results published in patent US8703768B2, “Nitrogen containing heteroaryl compounds” (Hoffmann-La Roche Inc., priority 2010, dated 2014).
pIC50: −log10 of the molar value.

Target: human PDE10A (Homo sapiens (Human), UniProt Q9Y233)
Assay: human PDE10A full length Scintillation Proximity Assay (SPA)
Type: biochemical
Conditions: 50 nM cGMP and 50 nM [3H]-cGMP, 20 minutes at room temperature; read-out: PDE10A inhibition IC50
How it was run: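 Radiometric SPA read-out: after 20 min at room temperature with [^3H]-cGMP/cGMP substrate, zinc sulphate (18 mM) bead stop reagent added and counts read after 1 h. Non-specific signal defined without enzyme; full-length protein used.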

Chain of human PDE10A (Q9Y233 other isoform, or with tags, fused parts or gaps): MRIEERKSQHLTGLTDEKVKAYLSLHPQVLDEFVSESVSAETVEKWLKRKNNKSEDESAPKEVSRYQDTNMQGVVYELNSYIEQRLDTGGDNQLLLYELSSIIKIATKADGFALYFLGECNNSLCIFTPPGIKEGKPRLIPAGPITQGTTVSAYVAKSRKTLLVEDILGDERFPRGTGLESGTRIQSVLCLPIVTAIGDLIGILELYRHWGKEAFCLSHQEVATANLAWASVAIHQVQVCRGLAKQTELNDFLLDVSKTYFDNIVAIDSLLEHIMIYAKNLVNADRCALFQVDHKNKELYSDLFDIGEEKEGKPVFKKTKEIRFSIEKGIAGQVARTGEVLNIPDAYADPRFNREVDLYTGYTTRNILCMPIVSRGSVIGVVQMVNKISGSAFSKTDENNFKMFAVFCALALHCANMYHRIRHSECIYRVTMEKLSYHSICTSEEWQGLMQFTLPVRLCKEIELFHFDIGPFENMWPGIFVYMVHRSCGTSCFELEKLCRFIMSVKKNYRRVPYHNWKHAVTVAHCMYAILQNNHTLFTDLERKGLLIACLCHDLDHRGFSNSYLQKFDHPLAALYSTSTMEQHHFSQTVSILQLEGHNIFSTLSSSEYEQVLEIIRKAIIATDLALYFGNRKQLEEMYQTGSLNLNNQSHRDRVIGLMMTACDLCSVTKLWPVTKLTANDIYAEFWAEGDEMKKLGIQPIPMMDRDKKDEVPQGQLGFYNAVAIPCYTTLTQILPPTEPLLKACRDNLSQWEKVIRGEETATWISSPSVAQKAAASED

For `COCC(C)(C)CNC(=O)c1ccncc1NC(=O)c1nc(C2CC2)cnc1Nc1cncnc1` [Example 114, 6-Cyclopropyl-3-(pyrimidin-5-ylamino)-pyrazine-2-carboxylic acid [4-(3-methoxy-2,2-dimethyl-propylcarbamoyl)-pyridin-3-yl]-amide], the pIC50 was 8.96.

With `CN(CC1CCCO1)C(=O)c1c(NC(=O)c2nc(C3CC3)cnc2Nc2cncnc2)cnn1C` (centres unmarked) [Example 257, 6-Cyclopropyl-3-(pyrimidin-5-ylamino)-pyrazine-2-carboxylic acid {1-methyl-5-[methyl-(tetrahydro-furan-2-ylmethyl)-carbamoyl]-1H-pyrazol-4-yl}-amide] the pIC50 was 7.17.

Molecule `CN(C)CCNC(=O)c1c(NC(=O)c2nc(C3CC3)cnc2Nc2cncnc2)cnn1C` [Example 313, 6-Cyclopropyl-3-(pyrimidin-5-ylamino)-pyrazine-2-carboxylic acid [5-(2-dimethylamino-ethylcarbamoyl)-1-methyl-1H-pyrazol-4-yl]-amide] has a pIC50 of 7.28.

With `O=C(Nc1c(C(=O)N2CCC2)ccc(F)c1F)c1nc(C2CC2)cnc1Nc1cncnc1` [Example 320, 6-Cyclopropyl-3-(pyrimidin-5-ylamino)-pyrazine-2-carboxylic acid [6-(azetidine-1-carbonyl)-2,3-difluoro-phenyl]-amide] the pIC50 was 7.06.

`CNC(=O)c1cc(OCCO)ccc1NC(=O)c1nc(C2CC2)cnc1Nc1cncnc1` [Example 216, 6-Cyclopropyl-3-(pyrimidin-5-ylamino)-pyrazine-2-carboxylic acid [4-(2-hydroxy-ethoxy)-2-methylcarbamoyl-phenyl]-amide] was tested, and the pIC50 was 9.10.

For `CCn1ncc(NC(=O)c2nc(C3CC3)cnc2Nc2cncnc2)c1C(=O)N(C)C` [Example 169, 6-Cyclopropyl-3-(pyrimidin-5-ylamino)-pyrazine-2-carboxylic acid (5-dimethylcarbamoyl-1-ethyl-1H-pyrazol-4-yl)-amide], the pIC50 was 7.65.

With `CNC(=O)c1nn(CCC(F)(F)F)cc1NC(=O)c1nc(C2CC2)ccc1Nc1cncnc1` [Example 9, 6-Cyclopropyl-3-(pyrimidin-5-ylamino)-pyridine-2-carboxylic acid [3-methylcarbamoyl-1-(3,3,3-trifluoro-propyl)-1H-pyrazol-4-yl]-amide] the pIC50 was 6.83.

For `CCNC(=O)c1ncccc1NC(=O)c1nc(C2CC2)cnc1Nc1cncnc1` [Example 220, 6-Cyclopropyl-3-(pyrimidin-5-ylamino)-pyrazine-2-carboxylic acid (2-ethylcarbamoyl-pyridin-3-yl)-amide], the pIC50 was 8.64.

`CN(C)C(=O)c1ncncc1NC(=O)c1nc(C2CC2)cnc1Nc1cncnc1` [Example 205, 5-{[6-Cyclopropyl-3-(pyrimidin-5-ylamino)-pyrazine-2-carbonyl]-amino}-pyrimidine-4-carboxylic acid dimethylamide] was tested, and the pIC50 was 7.05.

`Cn1ncc(NC(=O)c2nc(C3CC3)cnc2Nc2cncnc2)c1C(=O)NCC(F)(F)F` [Example 144, 6-Cyclopropyl-3-(pyrimidin-5-ylamino)-pyrazine-2-carboxylic acid [1-methyl-5-(2,2,2-trifluoro-ethylcarbamoyl)-1H-pyrazol-4-yl]-amide] showed a pIC50 of 8.68.

With `Cn1ncc(NC(=O)c2nc(C3CC3)cnc2Nc2cncnc2)c1C(=O)NCC(C)(F)F` [Example 165, 6-Cyclopropyl-3-(pyrimidin-5-ylamino)-pyrazine-2-carboxylic acid [5-(2,2-difluoro-propylcarbamoyl)-1-methyl-1H-pyrazol-4-yl]-amide] the pIC50 was 8.66.
